According to the supplement of paper PMC10307832:

What was measured:
Assay in all cases: relative viability (nuclei count vs DMSO), 5 days (fraction); higher = more cells survive
VE-821 + Foretinib = compound: CS(=O)(=O)c1ccc(-c2cnc(N)c(C(=O)Nc3ccccc3)n2)cc1 [VE-821] + COc1cc2c(Oc3ccc(NC(=O)C4(C(=O)Nc5ccc(F)cc5)CC4)cc3F)ccnc2cc1OCCCN1CCOCC1 [Foretinib] (partner 0.25 µM)
Procedure, shortened: (§1)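 After 5 days of treatment, lung cancer cells in 1536-well plates were fixed and stained in a single step (final 0.05% Triton X-100, 1% formaldehyde, 1 ug/ml Hoechst) and their nuclei counted on 4× images. Treatment had been applied by pin tool the day after seeding as one drug alone or as a fixed anchor-drug dose with five library-drug doses (not always all listed) in √10 steps. Relative viability is the nuclei count of treated wells divided by that of vehicle wells, and values are medians of duplicate plates.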

Vismodegib + Crizotinib = compound: CS(=O)(=O)c1ccc(C(=O)Nc2ccc(Cl)c(-c3ccccn3)c2)c(Cl)c1 [Vismodegib] + C[C@@H](Oc1cc(-c2cnn(C3CCNCC3)c2)cnc1N)c1c(Cl)ccc(F)c1Cl [Crizotinib] (partner 1 µM)
Procedure, shortened: as §1

Vismodegib + Alpelisib = compound: CS(=O)(=O)c1ccc(C(=O)Nc2ccc(Cl)c(-c3ccccn3)c2)c(Cl)c1 [Vismodegib] + Cc1nc(NC(=O)N2CCC[C@H]2C(N)=O)sc1-c1ccnc(C(C)(C)C(F)(F)F)c1 [Alpelisib] (partner 2 µM)
Procedure, shortened: as §1

Vismodegib + Olaparib = compound: CS(=O)(=O)c1ccc(C(=O)Nc2ccc(Cl)c(-c3ccccn3)c2)c(Cl)c1 [Vismodegib] + O=C(c1cc(Cc2n[nH]c(=O)c3ccccc23)ccc1F)N1CCN(C(=O)C2CC2)CC1 [Olaparib] (partner 8 µM)
Procedure, shortened: as §1

**Q.** With UMC-11 as the cell line, how does the relative viability (VE-821 + Foretinib; first compound 0.08 µM) read?
**A.** The relative viability was 1.09.

**Q.** And the relative viability (VE-821 + Foretinib; first compound 0.253 µM)?
**A.** The relative viability was 1.01.

**Q.** And the relative viability (VE-821 + Foretinib; first compound 0.8 µM)?
**A.** Its relative viability is 1.08.

**Q.** And the relative viability (VE-821 + Foretinib; first compound 2.53 µM)?
**A.** Its relative viability is 1.06.

**Q.** And the relative viability (VE-821 + Foretinib; first compound 8 µM)?
**A.** The relative viability was 0.553.

**Q.** And the relative viability (Vismodegib + Crizotinib; first compound 0.08 µM)?
**A.** The relative viability was 0.57.

**Q.** What about the relative viability (Vismodegib + Crizotinib; first compound 0.253 µM) of the same cell line?
**A.** The relative viability was 0.56.

**Q.** And the relative viability (Vismodegib + Crizotinib; first compound 0.8 µM)?
**A.** Its relative viability is 0.723.

**Q.** What about the relative viability (Vismodegib + Crizotinib; first compound 2.53 µM) of the same cell line?
**A.** Its relative viability is 0.606.

**Q.** And the relative viability (Vismodegib + Crizotinib; first compound 8 µM)?
**A.** The relative viability was 0.652.

**Q.** What about the relative viability (Vismodegib + Alpelisib; first compound 0.08 µM) of the same cell line?
**A.** The relative viability was 1.01.

**Q.** And the relative viability (Vismodegib + Alpelisib; first compound 0.253 µM)?
**A.** Its relative viability is 1.01.

**Q.** And the relative viability (Vismodegib + Alpelisib; first compound 0.8 µM)?
**A.** Its relative viability is 1.05.

**Q.** What about the relative viability (Vismodegib + Alpelisib; first compound 2.53 µM) of the same cell line?
**A.** The relative viability was 0.957.

**Q.** What about the relative viability (Vismodegib + Alpelisib; first compound 8 µM) of the same cell line?
**A.** The relative viability was 0.952.

**Q.** And the relative viability (Vismodegib + Olaparib; first compound 0.08 µM)?
**A.** The relative viability was 0.416.

**Q.** What about the relative viability (Vismodegib + Olaparib; first compound 0.253 µM) of the same cell line?
**A.** Its relative viability is 0.361.

**Q.** And the relative viability (Vismodegib + Olaparib; first compound 0.8 µM)?
**A.** Its relative viability is 0.376.

**Q.** And the relative viability (Vismodegib + Olaparib; first compound 2.53 µM)?
**A.** The relative viability was 0.473.

**Q.** What about the relative viability (Vismodegib + Olaparib; first compound 8 µM) of the same cell line?
**A.** Its relative viability is 0.373.
